According to ChEMBL document CHEMBL1201862, “PubChem BioAssay data set” (2004):
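Five compound concentrations were applied to cells in 96-well plates for 48 hours; endpoints were derived by simple linear interpolation of the resulting dose-response curve. The concentration for 50% growth inhibition is given as GI50.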 The source made the active and inactive calls. Cut-off read from the data, not from the text of the source: active = GI50 up to about 1.1 µM and inactive = higher.

Experiments:
Experiment in all cases: NCI tumour cell line growth inhibition, 48 h
HOP-18 = tested on: HOP-18
SNB-78 = tested on: SNB-78
NCI/ADR-RES = tested on: NCI/ADR-RES
DLD-1 = tested on: DLD-1
MDA-N = tested on: MDA-N
MDA-MB-435 = tested on: MDA-MB-435
BT-549 = tested on: BT-549
XF498 = tested on: XF498
RXF 631 = tested on: RXF 631

| Compound | GI50 (HOP-18) | GI50 (SNB-78) | GI50 (NCI/ADR-RES) | GI50 (DLD-1) | GI50 (MDA-N) | GI50 (MDA-MB-435) | GI50 (BT-549) | GI50 (XF498) | GI50 (RXF 631) |
| --- | --- | --- | --- | --- | --- | --- | --- | --- | --- |
| O=NN1C(c2ccccc2)CNC(=O)CC1c1ccccc1 (stereo not given) | > 100 µM (inactive) | > 91.4 µM (inactive) | 28.7 µM (inactive) | 44.2 µM (inactive) | – | – | – | – | – |
| COc1ccc(C[C@H](N)C(=O)N2C[C@H](CO)C[C@H](n3cnc4c(N(C)C)ncnc43)C2)cc1 | 45.7 µM (inactive) | – | – | > 100 µM (inactive) | – | – | – | – | – |
| O=c1c(C(c2ccccn2)c2c(O)oc3cc(O)ccc3c2=O)c(O)oc2cc(O)ccc12 | – | – | > 100 µM (inactive) | – | > 100 µM (inactive) | > 100 µM (inactive) | > 100 µM (inactive) | – | – |
| CC(C)(C)[Si](C)(C)OC[C@H](/C=C\CCCC(=O)O)NC1(c2ccccc2)c2ccccc2-c2ccccc21 | – | – | 9.75 µM (inactive) | – | 20.6 µM (inactive) | 13.9 µM (inactive) | 24.5 µM (inactive) | – | – |
| O=C1CCCCN1 | 232 µM (inactive) | > 1120 µM (inactive) | 248 µM (inactive) | 879 µM (inactive) | – | – | – | 89.3 µM (inactive) | – |
| COc1ccc(-c2c3c(nc4nc(SC)nc(SC)c24)CCCC3)cc1OC | – | – | – | – | 29.9 µM (inactive) | 54.3 µM (inactive) | > 100 µM (inactive) | – | – |
| OC[C@@H](O)[C@H]1NC[C@@H](O)[C@H]1O | – | – | – | – | > 100 µM (inactive) | > 100 µM (inactive) | > 100 µM (inactive) | – | – |
| CC(=O)c1cccc(NC(=O)C(=O)C(C(=O)NN)c2ccccc2)c1 (stereo not given) | 16.5 µM (inactive) | – | – | > 100 µM (inactive) | – | – | – | > 100 µM (inactive) | > 100 µM (inactive) |
| O=c1cc(-c2nc3ccccc3[nH]2)[nH]c2nc(-c3nc4ccccc4[nH]3)cc(-c3ccc(Cl)cc3)c12 | – | – | 28.4 µM (inactive) | – | 20.5 µM (inactive) | 15.7 µM (inactive) | 35.9 µM (inactive) | – | – |
| CC(=O)N1N=C(c2ccc3ccccc3c2O)CC1c1cccs1 (stereo not given) | – | – | 13.6 µM (inactive) | – | 20.2 µM (inactive) | 18 µM (inactive) | 19.5 µM (inactive) | – | – |
| CC(=O)O[C@H]1CC[C@]2(C=O)[C@H]3CC[C@]4(C)[C@@H](C5=CC(=O)OC5)CC[C@]4(O)[C@@H]3CC[C@]2(O)C1 [STROPHANTHIDIN ACETATE] | – | – | 0.197 µM (active) | – | 0.282 µM (active) | 0.272 µM (active) | 0.144 µM (active) | – | – |
| NC12CCC(CC1=O)C2 (stereo not given) | – | – | > 100 µM (inactive) | – | > 100 µM (inactive) | > 100 µM (inactive) | – | – | – |
| O=C1Cc2c(-c3ccccc3)cc(-c3ccccc3)nc2-c2ccccc2N1 | – | – | 3.61 µM (inactive) | – | > 10 µM (inactive) | 15.9 µM (inactive) | 6.01 µM (inactive) | – | – |
| O=C1C=CC(=O)C1(Br)Br | – | – | 20.7 µM (inactive) | – | 11.5 µM (inactive) | 13.4 µM (inactive) | 11.3 µM (inactive) | – | – |
| COC1C(=[N+]=[N-])C(=O)NC(=O)N1C1OC(COC(c2ccccc2)(c2ccccc2)c2ccccc2)C(O)C1O (stereo not given) | 21.1 µM (inactive) | 18 µM (inactive) | – | 17.3 µM (inactive) | – | – | – | – | – |
| O=c1[nH]c(=O)n(C2CC(O)C(CO)O2)cc1C#Cc1cc(C(F)(F)F)cc(C(F)(F)F)c1 (stereo not given) | – | 50.7 µM (inactive) | – | > 29.4 µM (inactive) | – | – | – | 21 µM (inactive) | 21.3 µM (inactive) |
| O=C1CSC(C(/N=N/c2ccc(Cl)cc2)c2nc3ccccc3[nH]2)=N1 (stereo not given) | – | – | – | 65.5 µM (inactive) | – | – | – | 17.8 µM (inactive) | – |
| CCOC(=O)C(C(C)=O)C1CC=CC1 (stereo not given) | – | > 100 µM (inactive) | – | > 100 µM (inactive) | – | – | – | > 100 µM (inactive) | > 100 µM (inactive) |
